Consider 1 molecule from patent US20220403345A1, “A MAMMALIAN-AVIAN CHIMERIC MODEL SYSTEM” (INNOVO MIMETICS LIMITED, priority 2019, published 2022).

This assay deals with PEA2 ovarian cancer cell line. Nature of the assay: PEA2 matrix pellet tumor on egg CAM treated with Carboplatin. It is filed as in vivo. The following applies: 400 μg Carboplatin intravenous injection at E13; tumor excised from E16 egg. As for the experimental part:
FIGS. 1A-1C are micrographs showing bright field images of a Matrigel® pellet formed comprising 3×10^5 cells of PEA2 ovarian cancer cell line. (1A) is an image of a liquid Matrigel® placed on ParafilmTM at 37° C. for 30 minutes and allowed to solidify before being placed on the CAM of an embryonic day 9 egg (E9; pellet circumference=3-5 mm). (1B) is an image of a tumor excised from an E16 egg following engraftment with a MATRIGEL® pellet, as shown in […]). […] (1C) is images of a low-passage ovarian cancer cell line derived from ascites liquid drained from a patient which was engrafted, and the resulting tumor was excised, fixed embedded, sectioned (7 μm) and stained with either (left) hematoxylin and eosin or (right) for expression of CD44 by immunohistochemistry (tumor diameter is 0.4 cm). The ovarian cancer cell line PEA2 was embedded in a matrix pellet by resuspending 3×10^5 PEA2 cells in 15 μl Matrigel®, on ice, and pipetting onto a solid surface (Parafilm) at 37° C. for 30 minutes (FIG. 1A). The Matrigel® pellet that formed was then placed on the CAM of an E9 egg, close to an underlying CAM blood vessel junction. It was not necessary to wound the CAM surface blood vessels in order to achieve a high rate of engraftment. […] Tissue sections (7 μm thick) were cut and analyzed by histology and immunohistochemistry for cell viability, proliferation and death (FIG. 1C).

Regarding `N.N.O=C([O-])C1(C(=O)[O-])CCC1.[Pt+2]` [Carboplatin], the “tumor size compared to the original MATRIGEL pellet” value is recorded as “shrunk in size”.
